Assay [1] relates to A2058. As to the kind of experiment: Antitumor activity against human A2058 cells harboring BRAF V600E/PTEN deletion mutant xenografted in mouse assessed as decrease in tumor volume at 10 mg/kg, po administered once weekly for 21 days in presence of GDC-0973 by digital calipers analysis. The format is functional, organism-based. To be noted: time 21.0 day.
Assay [2] has as its system A2058. The experiment in a line: Antitumor activity against human A2058 cells harboring BRAF V600E/PTEN deletion mutant xenografted in mouse assessed as decrease in tumor volume at 1.5 mg/kg, po administered once daily for 21 days in presence of GDC-0973 by digital calipers analysis. The format is functional, organism-based. To be noted: time 21.0 day. (In general: Xenograft models place foreign cells or tissue in a host animal.)

Assay [3] relates to DLD-1. As to the kind of experiment: Antitumor activity against human DLD-1 cells xenografted in mouse assessed as tumor growth inhibition at 50 mg/kg, po administered every third day for 21 days. The conditions noted are these: DLD-1, 504 h, time 21 day, read-out: TGI. The format is functional.
Assay [4] concerns DLD-1. The experiment in a line: Antitumor activity against human DLD-1 cells xenografted in mouse assessed as tumor growth inhibition at 50 mg/kg, po administered every third day for 21 days in presence of (S)-(3,4-difluoro-2-((2-fluoro-4-iodophenyl)amino)phenyl)(3-hydroxy-3-(piperidin-2-yl)azetidin-1-yl)methanone. To be noted: DLD-1, 504 h, time 21 day, read-out: TGI. The format is functional.

Assay [5] relates to NCI-H2122. The experiment in a line: Antitumor activity against human NCI-H2122 cells xenografted in mouse assessed as tumor growth inhibition at 100 mg/kg, po administered once a day for 21 days in presence of (S)-(3,4-difluoro-2-((2-fluoro-4-iodophenyl)amino)phenyl)(3-hydroxy-3-(piperidin-2-yl)azetidin-1-yl)methanone. The format is functional. To be noted: NCI-H2122, 504 h, time 21 day, read-out: TGI.

In assay [6] the test system is NCI-H2122. The experiment in a line: Antitumor activity against human NCI-H2122 cells xenografted in mouse assessed as tumor growth inhibition at 30 mg/kg, po administered once a day for 21 days in presence of (S)-(3,4-difluoro-2-((2-fluoro-4-iodophenyl)amino)phenyl)(3-hydroxy-3-(piperidin-2-yl)azetidin-1-yl)methanone. The conditions noted are these: NCI-H2122, 504 h, time 21 day, read-out: TGI. The format is functional.

For assay [7], the system named is A2058. As to the kind of experiment: Antitumor activity against human A2058 cells xenografted in mouse assessed as tumor growth inhibition at 150 mg/kg, po administered every third day for 21 days. The format is functional. To be noted: A2058, 504 h, time 21 day, read-out: TGI.
A short description of assay [8]: Antitumor activity against human A375.X1 cells xenografted in mouse assessed as tumor growth inhibition at 100 mg/kg, po administered once a day for 21 days in presence of (S)-(3,4-difluoro-2-((2-fluoro-4-iodophenyl)amino)phenyl)(3-hydroxy-3-(piperidin-2-yl)azetidin-1-yl)methanone. The format is functional. To be noted: A375.X1, 504 h, time 21 day, read-out: TGI.

The subject of assay [9] is DLD-1. The experiment in a line: Antitumor activity against human DLD-1 cells xenografted in mouse assessed as tumor growth inhibition at 30 mg/kg, po administered once a day for 21 days. The format is functional. The conditions noted are these: DLD-1, 504 h, time 21 day, read-out: TGI.
Assay [10] has as its system A2058. The experiment in a line: Antitumor activity against human A2058 cells xenografted in mouse assessed as tumor growth inhibition at 100 mg/kg, po administered once a day for 21 days. To be noted: A2058, 504 h, time 21 day, read-out: TGI. The format is functional.
The test system of assay [11] is NCI-H2122. The experiment in a line: Antitumor activity against human NCI-H2122 cells xenografted in mouse assessed as tumor growth inhibition at 150 mg/kg, po administered […] for 21 days in presence of (S)-(3,4-difluoro-2-((2-fluoro-4-iodophenyl)amino)phenyl)(3-hydroxy-3-(piperidin-2-yl)azetidin-1-yl)methanone. The format is functional. The conditions noted are these: NCI-H2122, 504 h, time 21 day, read-out: TGI.

The nature of assay [12]: Antitumor activity against human A375.X1 cells xenografted in mouse assessed as tumor growth inhibition at 30 mg/kg, po administered once a day for 21 days in presence of (S)-(3,4-difluoro-2-((2-fluoro-4-iodophenyl)amino)phenyl)(3-hydroxy-3-(piperidin-2-yl)azetidin-1-yl)methanone. The format is functional. To be noted: A375.X1, 504 h, time 21 day, read-out: TGI.
For assay [13], the system named is NCI-H2122. As to the kind of experiment: Antitumor activity against human NCI-H2122 cells xenografted in mouse assessed as tumor growth inhibition at 150 mg/kg, po administered […] for 21 days. The format is functional. The conditions noted are these: NCI-H2122, 504 h, time 21 day, read-out: TGI.
Assay [14] in a line: Antitumor activity against human A375.X1 cells xenografted in mouse assessed as tumor growth inhibition at 100 mg/kg, po administered once a day for 21 days. The format is functional. The conditions noted are these: A375.X1, 504 h, time 21 day, read-out: TGI.
Assay [15] concerns A2058. As to the kind of experiment: Antitumor activity against human A2058 cells xenografted in mouse assessed as tumor growth inhibition at 30 mg/kg, po administered once a day for 21 days in presence of (S)-(3,4-difluoro-2-((2-fluoro-4-iodophenyl)amino)phenyl)(3-hydroxy-3-(piperidin-2-yl)azetidin-1-yl)methanone. The format is functional. To be noted: A2058, 504 h, time 21 day, read-out: TGI.

A short description of assay [16]: Antitumor activity against human A375.X1 cells xenografted in mouse assessed as tumor growth inhibition at 150 mg/kg, po administered every third day for 21 days. The conditions noted are these: A375.X1, 504 h, time 21 day, read-out: TGI. The format is functional.
The test system of assay [17] is A2058. As to the kind of experiment: Antitumor activity against human A2058 cells xenografted in mouse assessed as tumor growth inhibition at 30 mg/kg, po administered once a day for 21 days. The conditions noted are these: A2058, 504 h, time 21 day, read-out: TGI. The format is functional.
Assay [18] in a line: Antitumor activity against human A375.X1 cells xenografted in mouse assessed as tumor growth inhibition at 150 mg/kg, po administered every third day for 21 days in presence of (S)-(3,4-difluoro-2-((2-fluoro-4-iodophenyl)amino)phenyl)(3-hydroxy-3-(piperidin-2-yl)azetidin-1-yl)methanone. The format is functional. To be noted: A375.X1, 504 h, time 21 day, read-out: TGI.
The subject of assay [19] is NCI-H2122. The experiment in a line: Antitumor activity against human NCI-H2122 cells xenografted in mouse assessed as tumor growth inhibition at 100 mg/kg, po administered once a day for 21 days. The format is functional. The conditions noted are these: NCI-H2122, 504 h, time 21 day, read-out: TGI.
Assay [20] relates to NCI-H2122. As to the kind of experiment: Antitumor activity against human NCI-H2122 cells xenografted in mouse assessed as tumor growth inhibition at 30 mg/kg, po administered once a day for 21 days. The conditions noted are these: NCI-H2122, 504 h, time 21 day, read-out: TGI. The format is functional.
Assay [21] is described as follows: Antitumor activity against human A375.X1 cells xenografted in mouse assessed as tumor growth inhibition at 30 mg/kg, po administered once a day for 21 days. The format is functional. The conditions noted are these: A375.X1, 504 h, time 21 day, read-out: TGI.
The subject of assay [22] is DLD-1. As to the kind of experiment: Antitumor activity against human DLD-1 cells xenografted in mouse assessed as tumor growth inhibition at 30 mg/kg, po administered once a day for 21 days in presence of (S)-(3,4-difluoro-2-((2-fluoro-4-iodophenyl)amino)phenyl)(3-hydroxy-3-(piperidin-2-yl)azetidin-1-yl)methanone. The conditions noted are these: DLD-1, 504 h, time 21 day, read-out: TGI. The format is functional.

Activity calls are given as the source filed them. No cut-off for these calls is given here.

Regarding `Cc1c(CN2CCN(C(=O)[C@H](C)O)CC2)sc2c(N3CCOCC3)nc(-c3cnc(N)nc3)nc12`, the outcome with A2058 [1] and in the assay with A2058 [2] was Active.
For the molecule `CS(=O)(=O)N1CCN(Cc2cc3nc(-c4cccc5[nH]ncc45)nc(N4CCOCC4)c3s2)CC1` [PICTILISIB], the inhibition in vivo at 50 mg/kg in the assay with DLD-1 [3] was 13%; with DLD-1 [4], 72%. In addition, the inhibition in vivo at 100 mg/kg in the assay on NCI-H2122 [5] is 156%; in assay [8], 122%; in the assay on A2058 [10], 58%; in assay [14], -2%; in the assay on NCI-H2122 [19] it was 91%. Further, the inhibition in vivo at 30 mg/kg came out at 75% in the assay with NCI-H2122 [6]; 63% in the assay on DLD-1 [9]; 69% in assay [12]; 73% in the assay with A2058 [15]; 24% with A2058 [17]; 63% with NCI-H2122 [20]. For the same molecule, the inhibition in vivo at 30 mg/kg amounted to 23% in [21] and 88% in the assay with DLD-1 [22]. The inhibition in vivo at 150 mg/kg was determined as 50% with A2058 [7]; 87% in the assay with NCI-H2122 [11]; 43% with NCI-H2122 [13]; 57% in [16]; 118% in assay [18].

The values are drawn from ChEMBL document CHEMBL5678805, “Intermittent administration of MEK inhibitor GDC-0973 plus PI3K inhibitor GDC-0941 triggers robust apoptosis and tumor growth inhibition” (Cancer Res, 2012).
